Test results from US9307763B2, “Ligands for odor receptors and olfactory neurons” (The Regents of the University of California, priority 2010, dated 2016).

Biological target: T1, Or59b, ab2A (Drosophila melanogaster, UniProt Q9W1P8)
T1 construct: The 9 Ors tested are expressed in well-defined olfactory receptor neurons (ORNs) housed within the large and small basiconic sensilla; from tissue; host or cells: D. melanogaster antenna, ab2A olfactory receptor neuron (in vivo recording)
T1 sequence (Q9W1P8 1-398): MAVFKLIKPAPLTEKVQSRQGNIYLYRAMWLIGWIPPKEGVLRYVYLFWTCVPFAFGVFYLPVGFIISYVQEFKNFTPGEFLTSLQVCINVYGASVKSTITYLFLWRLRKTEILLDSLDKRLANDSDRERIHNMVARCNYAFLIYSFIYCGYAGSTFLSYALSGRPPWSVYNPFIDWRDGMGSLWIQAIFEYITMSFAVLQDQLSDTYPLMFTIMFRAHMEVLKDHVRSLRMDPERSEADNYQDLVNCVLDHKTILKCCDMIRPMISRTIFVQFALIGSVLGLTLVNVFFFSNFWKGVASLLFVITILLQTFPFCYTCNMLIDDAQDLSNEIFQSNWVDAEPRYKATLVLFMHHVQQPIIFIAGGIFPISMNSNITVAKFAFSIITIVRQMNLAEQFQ
T1 sequence (Q9VNB5 1-486 partner): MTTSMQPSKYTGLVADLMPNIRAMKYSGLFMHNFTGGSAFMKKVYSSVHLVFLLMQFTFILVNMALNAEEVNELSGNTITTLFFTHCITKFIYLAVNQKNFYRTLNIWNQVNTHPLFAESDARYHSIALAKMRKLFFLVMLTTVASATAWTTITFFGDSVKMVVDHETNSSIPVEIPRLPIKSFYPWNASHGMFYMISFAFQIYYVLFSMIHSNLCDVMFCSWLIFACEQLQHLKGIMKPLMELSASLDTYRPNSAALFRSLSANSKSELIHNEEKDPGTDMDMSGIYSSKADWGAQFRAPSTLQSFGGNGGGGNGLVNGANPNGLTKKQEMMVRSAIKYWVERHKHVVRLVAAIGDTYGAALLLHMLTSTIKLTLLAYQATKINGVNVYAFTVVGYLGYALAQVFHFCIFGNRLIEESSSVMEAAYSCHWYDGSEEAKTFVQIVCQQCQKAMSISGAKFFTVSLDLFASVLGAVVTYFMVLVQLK
Assay: single-sensillum electrophysiology
Format: in vivo
Conditions: odorant at 10^-2
Method: The results of the in silico screen are provocative. However in order to verify whether these predictions were meaningful, functional evidence was obtained. In order to validate the success of the in silico predictions the responses of 9 Odor receptors using single-sensillum electrophysiology directly on the Drosophila melanogaster antenna were analyzed. For each Odor receptor several odorants were tested from the top 500 predicted hits. A sampling of ˜192 novel odorants were tested with ˜11-21 novel odorants tested for each receptor, which were scattered somewhat randomly within the top 500 predictions for each receptor, providing a relatively unbiased set of chemical structures.
To test identified compounds any number of biological assays can be used to measure ORN activity in the presence of a putative ligand/compounds. […] For the purpose of testing each of these volatile compounds the compounds were diluted to ˜10^−2 in paraffin oil or distilled water. The 9 Ors tested are expressed in well-defined olfactory receptor neurons (ORNs) housed within the large and small basiconic sensilla (ab1-ab7) on the antenna. A previously identified diagnostic panel of odorants was used to distinguish individual classes of sensilla (ab1-ab7) and therefore identified the sensilla that contained the target Or expressing ORN. […]

With `CC(=O)OC(C)C` [isopropyl acetate] the “activation of odor receptor (firing rate)” value was greater than 250 spikes/sec.

System: CO2 responsive neurons
Assay: not given
Conditions: […]; averaged across the top 2 responders of the 4 species; cited from earlier work

Compared with `CCCCCCCOC(C)=O` [heptyl acetate], `CCCCCCCCOC(C)=O` [octyl acetate] is lower in “Final Activity” value: −8 for the first, −15 for the second.

First: CCC/C=C/C=O [(E)2-hexenal]
Second: C/C=C\CCC [cis-2-hexene]
The “Final Activity” value of the first is lower: 0 for the first, 5 for the second.

Compared with `CCCC(=O)O` [butyric acid], `CCCCC(=O)O` [pentanoic acid] is higher in “Final Activity” value: −94 for the first, −26 for the second.

First: CC/C=C\CCO [cis-3-hexen-1-ol]
Second: CCCCCO [pentanol]
The “Final Activity” value of the first is higher: 10 for the first, −41 for the second.

First: Cc1cnc(C)cn1 [2,5-dimethylpyrazine]
Second: CCc1ncc(C)nc1C [2-ethyl-3,5-dimethylpyrazine]
The “Final Activity” value of the first is higher: 26 for the first, 8 for the second.

Compared with `C=CCc1ccc(O)c(OC)c1` [Eugenol], `C=CCc1ccc(OC)c(OC)c1` [Eugenol Methyl Ether] is lower in “Final Activity” value: 1 for the first, −9 for the second.

Compared with `CCOC(C)=O` [Ethyl Acetate], `CCCCCOC(C)=O` [pentyl acetate] is lower in “Final Activity” value: 8 for the first, −15 for the second.

Compared with `C=CC(O)CCCCC` (centres unmarked) [1-octen-3-ol], `C=CC(O)CCCC` (centres unmarked) [1-hepten-3-ol] is higher in “Final Activity” value: −27 for the first, 0 for the second.

First: CCCCCC(=O)O [hexanoic acid]
Second: CCCCCCC(=O)O [heptanoic acid]
The “Final Activity” value of the first is lower: −16 for the first, −14 for the second.

Compared with `CC(C)=CCC/C(C)=C/CO` [Geraniol], `CC(C)=CCCC(C)O` (centres unmarked) [6-methyl-5-hepten-2-ol] is lower in “Final Activity” value: 8 for the first, 0 for the second.

First: CCCCCC=O [hexanal]
Second: CCCCCCC=O [heptanal]
The “Final Activity” value of the first is lower: −32 for the first, −21 for the second.

Going from `CCCCC(=O)OCC` [ethyl valerate] to `CCCCC(=O)C(C)C` [2-methyl-3-heptanone], the “Final Activity” value falls from 5 to −26.

Compared with `CC1CCC(=O)O1` (centres unmarked) [gamma-valerolactone], `CC12CCC(C1)C(C)(C)C2=O` (centres unmarked) [Fenchone] is higher in “Final Activity” value: −5 for the first, −2 for the second.

Going from `CC(=O)c1ccccc1` [Phenylethanone] to `COc1ccccc1` [Anisole], the “Final Activity” value rises from 5 to 6.

First: CC(=O)C(=O)O [pyruvic acid]
Second: CC(=O)C(C)=O [2,3-butanedione]
The “Final Activity” value of the first is higher: 2 for the first, −99 for the second.

Compared with `CCCCCCO` [hexanol], `CCCCCCCO` [heptanol] is higher in “Final Activity” value: −70 for the first, −38 for the second.

Going from `COCC(C)=O` [methoxyacetone] to `CCC(C)=O` [butanone], the “Final Activity” value falls from 6 to −25.

Going from `CCCNCCO` [2-(propylamino)-ethanol] to `CCCCCCCCO` [octanol], the “Final Activity” value rises from −39 to −35.

Going from `CCCC=O` [butanal] to `CCCCC=O` [pentanal], the “Final Activity” value rises from −85 to −51.

First: C=C(C)[C@H]1CC=C(C)CC1 [Limonene]
Second: C=C(C)C1CC=C(C)C(=O)C1 (centres unmarked) [Carvone]
The “Final Activity” value of the first is lower: −2 for the first, 4 for the second.

Going from `COC(=O)C(C)=O` [methyl pyruvate] to `CCC(=O)C(C)=O` [2,3-pentanedione], the “Final Activity” value rises from −100 to −55.

Going from `CC(C)=CCCC(C)CC=O` (centres unmarked) [Citronellal] to `CC(=O)OCCC(C)C` [Isoamyl Acetate], the “Final Activity” value falls from 8 to −2.

Going from `O=C1CCCCC1` [Cyclohexanone] to `CCC(=O)O` [propionic acid], the “Final Activity” value falls from 48 to −32.

Compared with `CCCCCC[SiH3]` [hexylsilane], `CCCCCCC` [heptane] is lower in “Final Activity” value: 3 for the first, −29 for the second.

First: CC(=O)CF [fluoroacetone]
Second: CC(=O)CCO [4-hydroxy-2-butanone]
The “Final Activity” value of the first is higher: 10 for the first, −11 for the second.

Going from `CCCCCCC(=O)CC` [3-nonanone] to `CCCCCCCC(=O)CC` [3-decanone], the “Final Activity” value falls from 2 to 1.

First: CCC(=O)Cl [propionyl chloride]
Second: CCCC(=O)Cl [butyryl chloride]
The “Final Activity” value of the first is lower: −73 for the first, −39 for the second.

Going from `CC=C(C)CC` [3-methyl-2-pentene] to `CCC=O` [propionaldehyde], the “Final Activity” value falls from 5 to −68.

First: CO [Methanol]
Second: CC(C)O [Isopropyl Alcohol]
The “Final Activity” value of the first is lower: −14 for the first, 3 for the second.

Compared with `Cc1ccc(O)cc1` [4-methylphenol], `Cc1ccccc1O` [2-methylphenol] is higher in “Final Activity” value: 3 for the first, 24 for the second.

Going from `CCCCC(C)O` (centres unmarked) [2-hexanol] to `CCCCCC(C)O` (centres unmarked) [2-heptanol], the “Final Activity” value falls from 2 to −39.

Going from `CSCCC=O` [Methional] to `CSCCCC=O` [4-(methylthio)-1-butanal], the “Final Activity” value falls from 0 to −15.

Compared with `CCCCCCOC(C)=O` [hexyl acetate], `CCCCCCCC(=O)O` [octanoic acid] is lower in “Final Activity” value: −12 for the first, −21 for the second.

First: Cc1ccc(C)s1 [2,5-dimethylthiophene]
Second: Cc1nc(C)c(C)s1 [2,4,5-trimethylthiazole]
The “Final Activity” value of the first is lower: −9 for the first, 5 for the second.

`Cc1ccc(C(C)C)c(O)c1` [Thymol] and `CC(=O)c1ccccc1` [acetophenone] are the same in “Final Activity” value: 15 for the first, 15 for the second.

First: c1ccc2[nH]ccc2c1 [Indole]
Second: c1ccc2ccccc2c1 [naphthalene]
The “Final Activity” value of the first is higher: 21 for the first, −14 for the second.

Compared with `CCCCC` [pentane], `CCCCCCCC` [octane] is lower in “Final Activity” value: −31 for the first, −34 for the second.

Compared with `CCCCC(O)CC` (centres unmarked) [3-heptanol], `CCCCCC(O)CC` (centres unmarked) [3-octanol] is higher in “Final Activity” value: −16 for the first, −14 for the second.

First: c1cscn1 [thiazole]
Second: c1cnccn1 [pyrazine]
The “Final Activity” value of the first is higher: 100 for the first, −8 for the second.

`CCCCCCS` [1-hexanethiol] and `CCCCCCBr` [1-bromohexane] are the same in “Final Activity” value: 3 for the first, 3 for the second.

Compared with `CC1CCC(C(C)C)C(O)C1` (centres unmarked) [Menthol], `CCCC(=O)CCC` [4-heptanone] is higher in “Final Activity” value: −2 for the first, 2 for the second.

Going from `CCCCCCI` [1-iodohexane] to `CCCCCCCl` [1-chlorohexane], the “Final Activity” value rises from 3 to 8.

Going from `OCCCCCO` [1,5-pentanediol] to `CCCCCCCCCO` [Nonanol], the “Final Activity” value falls from 0 to −12.

First: O=CCc1ccccc1 [phenylacetaldehyde]
Second: O=Cc1ccccc1 [Benzaldehyde]
The “Final Activity” value of the first is lower: 3 for the first, 6 for the second.

First: CC(=O)c1cccs1 [2-acetylthiophene]
Second: O=C(c1ccccc1)c1ccccc1 [Benzophenone]
The “Final Activity” value of the first is higher: 31 for the first, 8 for the second.

For `CCCCCCCC=O` [octanal], the “Final Activity” value is given as −20.

Same assay, conditions: in vivo; cited from earlier work

First: c1ccncc1 [pyridine]
Second: CCO [Ethanol]
The “Final Activity” value of the first is higher: 99 for the first, −16 for the second.

Going from butanol to `CCCCOC(C)=O` [butyl acetate], the “Final Activity” value falls from −25 to −28.

First: CC(=O)O [Acetic Acid]
Second: CCCCCC [hexane]
The “Final Activity” value of the first is higher: −7 for the first, −25 for the second.
